Source: PMC12406664, “New derivatives of 6-nitrocoumarin-3-thiosemicarbazone exhibit improved antiparasitic activity in the placenta against Trypanosoma cruzi and Toxoplasma gondii” (Antimicrobial Agents and Chemotherapy, 2025)
Entries after “also recorded” stand apart in the source; their conditions may differ. One block for each compound: values may come before it.

What was measured:
[1] = tested on: T. gondii tachyzoites, RH strain; experiment: Resazurin viability assay on free T. gondii tachyzoites; type: cell-based, Toxoplasma gondii; conditions: for viability at 100 µM: tachyzoites RH
Description: Untreated parasites served as a negative control.

[2] = Lipophilicity by reversed-phase TLC (RM); conditions: reverse phase-C18, DMSO/phosphate buffer pH 7.4 (70:30 vol/vol), RM = log[(1/Rf) – 1]
[3] = Cyclic voltammetry, reduction potentials in DMSO (HDME, vs. Ag/AgCl); conditions: 2.00 V/s; for E(pIIa): anodic peak IIa; for E(pIIc): cathodic peak IIc, nitro anion radical couple; for E(pIca): cathodic peak Ica; for E(pIca) / E(pIcb): nitro reduction; for E(pIcb): cathodic peak Icb; for E(pIIIc): cathodic peak IIIc, hydroxylamine formation; for E(pIVc): cathodic peak IVc, imine reduction
[4] = tested on: T. cruzi trypomastigotes, Dm28 strain; experiment: Resazurin viability assay on free T. cruzi trypomastigotes; conditions: Trypanosoma cruzi, 24 h, read-out: Viability T. cruzi (%)
Experimental: The reduction of resazurin sodium salt was used to determine the trypanocidal and toxoplasmicidal activity of the 6-nitrocoumarin-thiosemicarbazone hybrids 1–8. For this, treatment with the compounds was carried out for 24 h at a concentration of 100 µM.
NFX was used as a positive control for T. cruzi, and PMN was used for T. gondii. Untreated parasites served as a negative control. […] Subsequently, parasites with their respective conditions were transferred to a 96-well white fluorescence reading plate, adding resazurin at a final concentration of […] with 0.8 mM phenazine. The plate was incubated for 3 hours at 37°C in a humidified atmosphere with 5% CO2, and fluorescence measurements were taken using a microplate reader (Thermo Scientific Varioskan Flash) at excitation wavelengths of 560 nm and emission wavelengths of 590 nm.

[5] = tested on: human placental explants (HPE); experiment: Histopathology of uninfected HPE exposed to the compounds alone; conditions: explants incubated only with the compound, 24 h, IC50 concentration
Experimental: The HPE was fixed in 10% formaldehyde in 0.1 M phosphate buffer (pH 7.3) for 24 h, dehydrated in alcohol, clarified in xylene, embedded in paraffin, and sectioned at 3 µm. Paraffin histological sections were stained with hematoxylin-eosin for routine histological analysis, Picro Sirius red, and trichromic Masson for collagen histochemistry. Sections for the histological analysis were observed under an optical microscope (Leica DM500) and images were captured with a Leica ICC50 W camera ([7], [91]).

[6] = Cytotoxicity on cells (resazurin), BeWo; type: cell-based; conditions: human, BeWo trophoblast cells
Description: (§1) Triton X-100 was used as a positive control, and untreated cells served as a negative control. In addition, the maximum concentration of DMSO was used as a control for the method. […] The obtained values were expressed as IC50([88]).

[7] = tested on: HPE exposed to T. gondii tachyzoites; experiment: Histopathology of HPE infected with T. gondii; type: cell-based, human; conditions: IC50 concentration
Description: (§2) Cells or HPE were exposed to parasites. […] The following treatment conditions were used in both infection models. […] Untreated cells or HPE served as a negative control, and the compounds’ activity was compared with the reference drugs (NFX and PMN).

[8] = tested on: T. gondii (RH strain) in BeWo cells; experiment: T. gondii DNA load in infected BeWo cells by real-time qPCR; type: cell-based, Toxoplasma gondii; conditions: IC50 concentration
Experimental: as §2
Subsequently, cells were exposed to parasites at a 1:1 ratio (cell: parasite) for 24 hours. Finally, the cells were washed with PBS and harvested using trypsin. For the parasitic DNA load in the ex vivo infection model, HPE was incubated in 24-well plates and exposed to parasites at a concentration of 10^5 parasites/mL for 24 hours. Finally, they were washed with PBS and homogenized using the ultraturrax homogenizer OMNI TipTM. Genomic DNA was extracted from BeWo cells or HPE using the Wizard Genomic DNA Purification Kit (Promega, USA) following the manufacturer’s instructions. The resulting DNA was quantified using a μDrop Plate DNA quantification system on the Varioskan Flash multimode reader (Thermo Scientific, USA). For the amplification of human DNA and parasitic DNA, three pairs of primers specific for human GAPDH (hGADPH), T. cruzi satellite DNA, and T. gondii B1 gene DNA were used (Table 7). Each reaction mixture contained 0.5 µL of 10 nM of each primer (Forward and reverse), 1 ng of DNA from T. cruzi samples, 10 ng of DNA from T. gondii samples, 10 µL of SensiFASTTM SYBR Hi-ROX kit (Bioline, Heidelberg, Baden Württemberg, Germany), and ultrapure water (Sigma-Aldrich, St. Louis, MO, USA) for a total of 20 µL.
(§3) Amplification was carried out using the CFX96 Touch Deep Well Real-Time PCR Detection System (Biorad, California, USA) with the following cycling program: initial denaturation at 95°C for 3 min, followed by 40 cycles of denaturation at 95°C for 5 s, annealing at 60°C for 30 s, and a dissociation stage ranging from 60°C to 95°C. The relative quantification analysis of the results was expressed as RQ values using the comparative […] (∆∆Ct) ([80]).

[9] = Cytotoxicity on cells (resazurin), EA.hy926; type: cell-based; conditions: human, EA.hy926 endothelial cells
Description: as §1

[10] = tested on: T. gondii (RH strain) in HPE; experiment: T. gondii DNA load in infected human placental explants (HPE) by real-time qPCR; type: cell-based, Toxoplasma gondii; conditions: IC50 concentration
Experimental: The effect on HPE infection of compounds 1 and 7 by Toxoplasma gondii and Trypanosoma cruzi, respectively, was evaluated. To do this, the DNA of the T. gondii or T. cruzi parasite was quantified by infecting HPE for 24 hours under treatment conditions of co-incubation of compounds with the parasite at the same time of infection, and with a 24 hour post-infection treatment. The compound’s IC50 concentration value previously obtained under both conditions was used.
Term human placentas were obtained from uncomplicated pregnancies via scheduled cesarean sections. Each patient provided informed consent for the experimental use of the placenta, and the study was approved by the ethics committee of Hospital San José, Servicio Salud Metropolitano Norte (N° 013/2022). Exclusion criteria for placental use included significant fetal anomalies, placental tumors, intrauterine infection, positive serology for Chagas disease, obstetric pathology, and any other maternal disease. Donor patients tested negative for T. gondii IgG/IgM antibodies. Organs were collected in sterile, cold PBS and processed within 30 minutes after delivery. Maternal and fetal surfaces of each placenta were discarded, and the villous tissue from the central part of the placental cotyledons was isolated. […] All the experiments were performed in triplicate in at least three different placentas.
Cells or HPE were exposed to parasites. […]
Subsequently, cells were exposed to parasites at a 1:1 ratio (cell: parasite) for 24 hours. […] The resulting DNA was quantified using a μDrop Plate DNA quantification system on the Varioskan Flash multimode reader (Thermo Scientific, USA). […]
as §3

[11] = tested on: T. gondii (RH strain) in BeWo cells; experiment: Infection of BeWo cells by T. gondii, infected cells counted by fluorescence microscopy; type: cell-based, Toxoplasma gondii; conditions: compound at IC50, untreated control 64 ± 6
Experimental: The effect of the compounds on the infection of BeWo trophoblast cells by T. gondii and T. cruzi was assessed. The DNA of T. gondii and T. cruzi was quantified in infected BeWo cells treated for 24 hours under two conditions: co-incubation and post-infection treatment. […] Fluorescence microscopy was employed to quantify the number of infected cells. The resulting images were analyzed using ImageJ software to count both infected and uninfected cells.
For the microscopic analysis of BeWo cells infected with T. cruzi, the cells were washed with PBS to remove the supernatant, fixed with 90% cold methanol, rewashed with PBS, and incubated for 5 minutes with 1 µg/mL—1 4,6-diamidino-2-phenylindole (DAPI) (Molecular Probes). To analyze BeWo cells infected with T. gondii, cells were fixed with 90% cold methanol, washed with PBS containing 0.05% Tween, and blocked using 3% BSA for 1 hour at 37°C. Then, they were incubated with the primary monoclonal antibody Toxoplasma gondii (TP3): sc-52255 at a dilution of 1:500 with 1% BSA overnight at 4°C. Afterward, the samples were incubated with the FITC anti-mouse IgG secondary antibody at a dilution of 1:100 with 1% BSA for 1 hour at 37°C. Finally, they were washed with PBS containing 0.05% Tween and incubated for 5 minutes with DAPI. Subsequently, the sections were mounted in Vectashield (ScyTek ACA). Sections for the analysis of cell infection by T. cruzi and T. gondii were observed under an epifluorescence microscope (Motic BA 310), and images were captured with a Motic 5 camera. T. cruzi amastigotes were identified by their morphology, including nuclear size and the presence of a kinetoplast, and were analyzed and quantified using ImageJ. At least 500 cells per condition were analyzed, and infected and non-infected cells were counted for every 100 cells ([35], [70]).
as §2

[12] = tested on: T. gondii; parameters: method as in ref 26 (a), 34 (e), 38 (f); conditions: Fig. 2 literature compounds; ref 26 (a), 34 (e), 38 (f); cited from earlier work
[13] = tested on: T. cruzi; parameters: method as in ref 28 (b), 32, 33 (c, d); conditions: Fig. 2 literature compounds; ref 28 (b), 32, 33 (c, d); cited from earlier work

Lipophilicity (RM) [2]: 0.13
E(pIIa) [3]: −1.01 V
E(pIIc) [3]: −1.08 V
E(pIca) [3]: −0.89 V
E(pIcb) [3]: −0.99 V
SMILES: CNC(=S)N/N=C(\C)c1c(O)c2cc([N+](=O)[O-])ccc2oc1=O [Compound 2, (E)−2-(1-(4-hydroxy-6-nitro-2-oxo-2H-chromen-3-yl)ethylidene)-N-methylhydrazine-1-carbothioamide]
viability at 100 µM ([1]; Toxoplasma gondii, 24 h): 29.1 ± 13.5%
viability at 100 µM [4]: 81.5 ± 14.1%

Lipophilicity (RM) [2]: 0.33
E(pIIa) [3]: −1.00 V
E(pIIc) [3]: −1.08 V
E(pIca) [3]: −0.88 V
E(pIcb) [3]: −0.99 V
SMILES: CCNC(=S)N/N=C(\C)c1c(O)c2cc([N+](=O)[O-])ccc2oc1=O [Compound 3, (E)-N-ethyl-2-(1-(4-hydroxy-6-nitro-2-oxo-2H-chromen-3-yl)ethylidene)hydrazine-1-carbothioamide]
viability at 100 µM ([1]; Toxoplasma gondii, 24 h): 49.6 ± 13.5%
viability at 100 µM [4]: 70.7 ± 9.4%

Lipophilicity (RM) [2]: 0.85
E(pIIa) [3]: −1.01 V
E(pIIc) [3]: −1.09 V
E(pIca) [3]: −0.62 V
E(pIcb) [3]: −1.05 V
SMILES: C/C(=N\NC(=S)Nc1ccccc1)c1c(O)c2cc([N+](=O)[O-])ccc2oc1=O [Compound 4, (E)−2-(1-(4-hydroxy-6-nitro-2-oxo-2H-chromen-3-yl)ethylidene)-N-phenylhydrazine-1-carbothioamide]
viability at 100 µM ([1]; Toxoplasma gondii, 24 h): 84.4 ± 13.7%
viability at 100 µM [4]: 50.3 ± 5%

Lipophilicity (RM) [2]: −0.58
E(pIIa) [3]: −0.90 V
E(pIIIc) [3]: ~−1.38 V
E(pIIc) [3]: ~−0.94 V
E(pIVc) [3]: ~−1.66 V
SMILES: C/C(=N\NC(N)=S)c1cc2cc([N+](=O)[O-])ccc2oc1=O [Compound 5, (E)−2-(1-(6-nitro-2-oxo-2H-chromen-3-yl)ethylidene)hydrazine-1-carbothioamide]
viability at 100 µM ([1]; Toxoplasma gondii, 24 h): 65.7 ± 14.8%
viability at 100 µM [4]: 44.6 ± 7.1%

Lipophilicity (RM) [2]: −0.41
E(pIIa) [3]: −0.87 V
E(pIIIc) [3]: −1.40 V
E(pIIc) [3]: −0.93 V
E(pIVc) [3]: −1.68 V
SMILES: CNC(=S)N/N=C(\C)c1cc2cc([N+](=O)[O-])ccc2oc1=O [Compound 6, (E)-N-methyl-2-(1-(6-nitro-2-oxo-2H-chromen-3-yl)ethylidene)hydrazine-1-carbothioamide]
viability at 100 µM ([1]; Toxoplasma gondii, 24 h): 55.5 ± 9.6%
viability at 100 µM [4]: 49.8 ± 5.3%

SMILES: CCc1nc(N)nc(N)c1-c1ccc(Cl)cc1 [PMN, pyrimethamine, reference compound]
IC50 ([1]; Toxoplasma gondii, extracellular tachyzoites RH strain, 24 h, resazurin): 20.8 ± 1.1 µM
SI = BeWo CC50/parasite IC50 ([1]; parasite T. gondii): 6.03
SI = EA.hy926 CC50/parasite IC50 ([1]; parasite T. gondii): 13.8
tissue damage caused by the compound itself in HPE [5]: neither compound induced tissue damage
CC50 at 24 h [6]: 125.5 ± 0.8 µM
tissue damage in infected HPE (histopathology) ([7]; co-incubation): without causing tissue damage
tissue damage in infected HPE (histopathology) ([7]; post-infection treatment): decreased the induced tissue damage
effect on parasite DNA load ([8]; co-incubation): more significant
effect on parasite DNA load ([8]; post-infection treatment): significantly reduced the parasite DNA load
CC50 at 24 h [9]: 287.5 ± 0.9 µM
effect on parasite DNA load ([10]; 24 hour post-infection treatment): decreased; also recorded: effectively reduced the explants’ parasitic load
effect on parasite DNA load ([10]; co-incubation): effectively reducing the parasitic load
Infected cells (%) ([11]; co-incubation 24 h): 19 ± 2%
Infected cells (%) ([11]; post-infection treatment 24 h): 16 ± 4%

SMILES: COc1ccc(/C(COc2ccc(F)cc2)=N\NC(N)=S)cc1 [a]
IC50 [12]: 1.09 µM

SMILES: NC(=S)N/N=C/c1ccc([N+](=O)[O-])o1 [b]
IC50 [13]: 9.8 µM

SMILES: O=C(Cc1c([N+](=O)[O-])c(=O)oc2ccccc12)c1cccnc1 [c]
IC50 [13]: 137 µM

SMILES: O=c1oc2c(O)c(O)ccc2cc1-c1ccccc1O [d]
IC50 [13]: 39.7 µM

SMILES: C/C(=N\N=C1\NC(=O)CS1)c1cc2ccccc2oc1=O [e]
IC50 [12]: 8 µM

SMILES: O=C(O)c1cn(C2CC2)c2cc(N3CCN(Cc4ccc([N+](=O)[O-])o4)CC3)c(F)cc2c1=O [f]
IC50 [12]: 7.9 µM
